The text below walks through data of ChEMBL document CHEMBL5726904, “Compounds, compositions, and methods” (2018).

pIC50: −log10 of the molar value.

For this experiment, the target named is Leucine-rich repeat serine/threonine-protein kinase 2 (Homo sapiens, UniProt Q5S007, G2019S). As to the kind of experiment: Biochemical Assay: Materials: LRRK2 G2019S enzyme Substrate (LRRKtide) ATP TR-FRET dilution buffer pLRRKtide antibody 384-well assay plate DMSOEnzyme Reaction Conditions 50 mM Tris pH 7.5, 10 mM MgCl2, 1 mM EGTA, 0.01% Brij-35, 2 mM DTT 5 nM LRRK2 134 μM ATP 60 minute reaction time 23° C. reaction temperature 10 μL total reaction volumeDetection Reaction Conditions 1× TR-FRET dilution buffer 10 mM EDTA 2 nM antibody 23° C. reaction temperature 10 μL total reaction volumeCompounds were prepared by initially diluting to 1 mM with DMSO. 35 μL of reference compound solution, 35 μL of test compound solution, and 35 μL HPE were successively added to the source plate (384-well assay plate, Labcyte). The plates were centrifuged at 2500 rpm for 1 minute and sealed in foil. POD was used to perform a 3.162 fold serial dilution and 100 nL of reference compound solution, test compound solution, HPE and ZPE were transferred to assay plates. The assay plate was centrifuged at 2500 rpm for 1 minute, and sealed with foil.To perform the enzyme reaction, 5 μL of LRRKtide substrate and kinase mixture in assay buffer was added to all wells of the assay plate. The plate was centrifuged to concentrate the mixture at the bottom of the wells. The assay plate was incubated at 23° C. for 20 minutes. […]. In general terms: TR-FRET usually uses a lanthanide donor and a delayed reading to cut background.
Leucine-rich repeat serine/threonine-protein kinase 2, sequence (Q5S007 whole entry G2019S): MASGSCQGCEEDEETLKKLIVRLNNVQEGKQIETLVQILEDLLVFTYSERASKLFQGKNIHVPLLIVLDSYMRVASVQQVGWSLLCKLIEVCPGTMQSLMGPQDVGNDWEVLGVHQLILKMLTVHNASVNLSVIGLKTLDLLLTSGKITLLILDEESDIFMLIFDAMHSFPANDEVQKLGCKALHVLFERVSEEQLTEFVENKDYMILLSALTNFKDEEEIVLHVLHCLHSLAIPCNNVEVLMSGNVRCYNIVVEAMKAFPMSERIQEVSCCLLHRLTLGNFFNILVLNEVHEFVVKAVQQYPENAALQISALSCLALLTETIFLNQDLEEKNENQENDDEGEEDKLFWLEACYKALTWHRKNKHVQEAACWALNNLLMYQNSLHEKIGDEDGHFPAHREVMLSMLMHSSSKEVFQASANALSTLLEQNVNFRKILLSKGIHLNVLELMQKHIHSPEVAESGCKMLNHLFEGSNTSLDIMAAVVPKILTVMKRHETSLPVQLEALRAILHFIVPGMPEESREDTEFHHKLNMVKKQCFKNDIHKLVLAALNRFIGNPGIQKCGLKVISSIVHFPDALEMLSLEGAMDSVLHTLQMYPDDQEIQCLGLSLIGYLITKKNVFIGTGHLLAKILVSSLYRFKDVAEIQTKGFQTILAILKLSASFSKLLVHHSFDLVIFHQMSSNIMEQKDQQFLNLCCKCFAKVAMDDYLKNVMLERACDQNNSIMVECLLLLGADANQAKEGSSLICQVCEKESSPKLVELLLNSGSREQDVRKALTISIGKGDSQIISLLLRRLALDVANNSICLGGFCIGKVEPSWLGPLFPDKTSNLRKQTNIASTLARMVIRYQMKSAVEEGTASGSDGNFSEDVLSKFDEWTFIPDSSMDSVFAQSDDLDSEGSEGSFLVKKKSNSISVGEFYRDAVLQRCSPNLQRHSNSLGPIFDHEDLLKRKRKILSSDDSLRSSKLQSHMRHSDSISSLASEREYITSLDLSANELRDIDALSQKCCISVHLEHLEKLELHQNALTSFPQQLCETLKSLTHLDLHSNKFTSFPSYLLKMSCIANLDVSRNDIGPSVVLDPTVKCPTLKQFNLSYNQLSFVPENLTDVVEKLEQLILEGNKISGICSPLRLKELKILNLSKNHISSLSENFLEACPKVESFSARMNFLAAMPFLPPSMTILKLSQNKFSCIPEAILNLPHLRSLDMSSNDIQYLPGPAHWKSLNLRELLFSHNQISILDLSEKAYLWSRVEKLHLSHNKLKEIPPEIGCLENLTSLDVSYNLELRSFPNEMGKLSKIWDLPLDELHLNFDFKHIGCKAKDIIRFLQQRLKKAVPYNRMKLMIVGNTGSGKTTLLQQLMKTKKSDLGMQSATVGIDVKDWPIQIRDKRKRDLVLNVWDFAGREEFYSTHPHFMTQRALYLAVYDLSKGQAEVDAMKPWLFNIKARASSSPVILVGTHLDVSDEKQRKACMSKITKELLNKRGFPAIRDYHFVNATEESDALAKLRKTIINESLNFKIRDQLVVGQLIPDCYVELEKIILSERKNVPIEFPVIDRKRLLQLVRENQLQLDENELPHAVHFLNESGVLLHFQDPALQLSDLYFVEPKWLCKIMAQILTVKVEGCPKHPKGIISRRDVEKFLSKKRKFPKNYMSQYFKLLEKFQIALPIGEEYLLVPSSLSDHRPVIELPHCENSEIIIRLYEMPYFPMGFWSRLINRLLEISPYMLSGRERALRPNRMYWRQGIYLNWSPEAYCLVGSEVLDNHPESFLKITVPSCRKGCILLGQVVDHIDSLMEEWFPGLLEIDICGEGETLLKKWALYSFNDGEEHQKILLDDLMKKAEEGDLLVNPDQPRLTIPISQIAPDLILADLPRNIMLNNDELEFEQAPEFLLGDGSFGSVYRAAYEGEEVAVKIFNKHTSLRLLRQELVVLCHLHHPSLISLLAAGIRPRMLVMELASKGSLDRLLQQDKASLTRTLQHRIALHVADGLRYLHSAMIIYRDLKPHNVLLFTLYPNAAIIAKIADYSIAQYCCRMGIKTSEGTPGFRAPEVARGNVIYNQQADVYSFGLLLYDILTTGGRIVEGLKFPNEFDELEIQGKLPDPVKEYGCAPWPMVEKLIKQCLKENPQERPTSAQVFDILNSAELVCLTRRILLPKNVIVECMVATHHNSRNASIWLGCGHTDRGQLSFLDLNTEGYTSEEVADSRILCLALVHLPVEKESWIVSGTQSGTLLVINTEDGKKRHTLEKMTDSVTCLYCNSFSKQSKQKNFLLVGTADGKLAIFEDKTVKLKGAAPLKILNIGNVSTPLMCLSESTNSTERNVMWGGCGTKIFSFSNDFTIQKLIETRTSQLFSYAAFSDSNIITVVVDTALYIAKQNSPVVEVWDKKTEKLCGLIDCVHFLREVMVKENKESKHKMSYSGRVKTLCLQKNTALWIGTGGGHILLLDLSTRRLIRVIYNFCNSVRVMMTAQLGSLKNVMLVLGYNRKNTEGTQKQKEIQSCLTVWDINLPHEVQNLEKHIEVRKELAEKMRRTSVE

Consider `COc1nc(Nc2cn(C(C)(C)C#N)nc2C)ncc1Br`, for which the pIC50 (usually the negative decadic logarithm of the IC50, by convention in mol/L) is greater than 7.52.
Under `COc1nc(Nc2cn(C3C[C@@H]3C#N)nc2C2CC2)ncc1Br` (single isomer, unassigned) stands greater than 7.52.
